Measurements reported in US20200297798A1, “KEY AMINO ACID SITES […] EXPORT OF NUC[…] INFLUENZA A AND B VIRUSES AND USE THEREOF AS ANTI-INFLUENZA VIRUS DRUG TARGETS” (INSTITUTE OF MICROBIOLOGY, CHINESE ACADEMY OF SCIENCES, priority 2017, published 2020).

How the values were obtained:
ANP Y148F = ANP Y148F (Influenza A virus, UniProt P15682, Y148F)
BNP F209A = BNP F209A (Influenza B virus, UniProt P04665, F209A)

## COc1ccc2cc(C(C)C(=O)O)ccc2c1 (stereo not drawn) [naproxen, (+) α-methyl-6-methoxy-2-naphthaleneacetic acid]
ANP Y148F
  n (stoichiometry): 0.10
  ΔH: -10.92 kcal/mol
  ΔS: −83.45 J/mol · K
BNP F209A
  n (stoichiometry): 1.68
  ΔH: -0.167 kcal/mol
  ΔS: 102.6 J/mol · K
